pEC50: −log10 of the molar value. Where two headings read alike, the source gives them in different places. Numbered stars: 1 amine (or outer) side, 2 acyl side, 3 side chain; on linkers, the order of the positions; unused ones are H or OH. Bridge positions count the residues as written; N and C are the ends. Square brackets hold non-standard residues; d marks the D form. Peptide text beside a SMILES is read from it. * marks the point of attachment. Phe(3-CH2NH2) = O=C([C@H](Cc1cccc(CN[*:3])c1)N[*:1])[*:2]; DOTA = O=C(O)CN1CCN(CC(=O)O)CCN(CC(=O)*)CCN(CC(=O)O)CC1; X2 = CC(C)(CN)CC[C@H](N[*:1])C(=O)[*:2]; X1 = CC(CN)CC[C@H](N[*:1])C(=O)[*:2]; Thr(ol) = C[C@@H](O)[C@H](N)CO
Target: T1, SSTR2 (Homo sapiens, UniProt P30874)
T1 construct: host or cells: CHO-K1
T1 sequence (P30874 whole entry): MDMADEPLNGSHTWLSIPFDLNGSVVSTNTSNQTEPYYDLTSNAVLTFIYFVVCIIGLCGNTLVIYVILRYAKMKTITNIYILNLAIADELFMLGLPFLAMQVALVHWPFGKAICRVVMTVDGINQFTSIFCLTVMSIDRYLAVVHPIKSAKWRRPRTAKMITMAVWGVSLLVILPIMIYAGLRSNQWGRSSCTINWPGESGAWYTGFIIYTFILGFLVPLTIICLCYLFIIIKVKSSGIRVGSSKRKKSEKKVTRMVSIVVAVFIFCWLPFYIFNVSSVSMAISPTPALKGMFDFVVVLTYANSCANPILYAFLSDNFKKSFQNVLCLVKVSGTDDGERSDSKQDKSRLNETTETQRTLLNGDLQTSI
Test: competitive radioligand binding assay (125I-Tyr11-Somatostatin-14) on membranes of SSTR2-overexpressing CHO-K1 cells
Conditions: for Bottom: parameter A, bottom of fitted % Effect curve; for Top: parameter B, top of fitted % Effect curve; for Hill slope: parameter D of fitted curve; for pEC50: radioligand 125I-Tyr11-Somatostatin-14, SSTR2 CHO-K1 cell membrane
Protocol: A competitive radioligand binding assay is utilized to measure the binding affinity of the somatostatin analogs of Formula II of the present invention. SSTR2-overexpressing CHO-K1 cells (Hunter Express SSTR2 CHO-K1; DiscoverX) are used in the radioligand competitive binding assay, with ^125I-Tyr^11-Somatostatin-14 (PerkinElmer) as the radioligand. The assay is performed as follows:
SSTR2-overexpressing CHO-K1 cells (from Discover X) were cultured in complete medium (F12 basal medium with 10% FBS and 1% P/S [100 U/mL penicillin and 100 µg/mL streptomycin]) in a 37°C incubator with 5% CO2. When the cell confluency reached 80-90%, the cells were washed twice with pre-cooled PBS. The cells were then scraped off with a cell scraper and transferred to a 50 mL centrifuge tube, followed by centrifugation at 500×g and 4°C for 10 minutes. The supernatant was discarded, and the cell pellet was retained. Cell membrane lysis buffer (containing 25 mM HEPES, 1 mM EDTA, 2 mM MgCl2, and 1× protease inhibitor, pH = 7.4) was added at a ratio of 4 × 10^7 cells/10 mL and placed on ice for 10 minutes. The cells were then disrupted using an IKA disruptor. The operating procedure was 15,000 rpm for 10 seconds, repeated twice. The disrupted cell suspension was centrifuged at 4°C and 650×g for 5 minutes. The supernatant was transferred to a new centrifuge tube and centrifuged at 13,000 rpm and 4°C for 30 minutes. The supernatant was discarded, and the cell membrane pellet was resuspended in 1.6 mL of resuspension buffer, which was cell membrane lysis buffer supplemented with 10% sucrose. The cell membrane lysis buffer was repeatedly aspirated 4 times with a 27-gauge needle to break the DNA. The cell membrane extract was measured for protein concentration using the BCA method and aliquoted and stored at -80°C.
• (1) Dilution of Compound: The assay buffer used contains 50 mM Hepes, 5 mM MgCl2, 1 mM CaCl2, and 0.5% BSA, pH = 7.4, and the buffer is filtered. The assay buffer is kept at 4°C. The ligand solution is serially diluted using an Agilent Bravo. Each test compound is diluted […] in succession. The eight binding concentrations of typical compounds are: 50 nM, 12.5 nM, 3.13 nM, 0.78 nM, 0.20 nM, 0.05 nM, 12.2 pM, and 3.05 pM. The affinity of each concentration is measured twice. Transfer 1 µL of each diluted compound to the corresponding wells of a 96-well V-bottom plate. • (2) Preparation of 125I-SST: The stock solution of 125I-SST was diluted to 3 nM (10×) with binding buffer (containing 50 mM Hepes, 5 mM MgCl2, 1 mM CaCl2, and 0.5% BSA, pH = 7.4, stored at 4°C). Transfer 10 µL of the solution to the corresponding compound well. • (3) Binding Experiment: The extracted cell membrane was diluted to 2.5 µg/90 µL with binding buffer and added to the corresponding wells. The mixture was incubated at 500 rpm on a 25°C shaker for 2 hours. The membrane complex was collected into a 0.5% PEI pre-coated GF/B plate using a Cell Harvester, and rinsed 3 times per well with 200 µL of pre-cooled buffer (4°C) (the same buffer used to dilute the compound). The plate was dried at 37°C for 2 hours. After adding 50 µL of liquid scintillation fluid (MicroScint20, Perkin Elmer) to each well and incubating for 30 minutes, the radioactivity was measured using a Topcount plate reader for 30 seconds per well.
For each compound, its 8-point reading data (2× of 8 readings) were imported into XLfit software and fitted to the sigmoidal curve. The EC50 of the compound for SSTR2 was calculated based on the mathematically optimal sigmoidal dose-response model equation: y−A + ((B−A))/(1 + (((C)/(x)))^D) [formula] where A represents the bottom of the curve, B represents the top of the curve, C represents the relative EC50, D represents the Hill slope, y represents the percentage effect value (% Effect) of the curve fitting, and x represents the molar concentration.

[1] = concentration x calculated from the fit at y = 50% effect, read-out: Absolute EC50
[2] = parameter C of sigmoidal fit, 8 concentrations in duplicate, read-out: Relative EC50

| SMILES | Bottom [%] | Top [%] | Hill slope | pEC50 [1] | pEC50 [2] |
| --- | --- | --- | --- | --- | --- |
| C[C@@H](O)[C@H](NC(=O)[C@@H]1CSSC[C@H](NC(=O)[C@@H](Cc2ccccc2)NC(=O)CN2CCN(CC(=O)O)CCN(CC(=O)O)CCN(CC(=O)O)CC2)C(=O)N[C@@H](Cc2ccc(O)cc2)C(=O)N[C@H](Cc2c[nH]c3ccccc23)C(=O)N[C@@H](CCC(C)(C)CN)C(=O)N[C@@H]([C@@H](C)O)C(=O)N1)C(=O)O [Compound 6] ({DOTA}-[dF]CY[dW][X2]TCT-OH; disulfide 2-7; N-terminus and C-terminus assumed) | 13.2 | 98.3 | 0.88 |  |  |
| C[C@@H](O)[C@@H]1NC(=O)[C@H](CCC(C)(C)CN)NC(=O)[C@@H](Cc2c[nH]c3ccccc23)NC(=O)[C@H](Cc2ccccc2)NC(=O)[C@@H](NC(=O)[C@H](N)Cc2ccccc2)CSSC[C@@H](C(=O)N[C@H](CO)[C@@H](C)O)NC1=O [Compound 2] (H-[dF]CF[dW][X2]TC[Thr(ol)]; disulfide 2-7) |  |  |  | 9.00 | 8.92 |
| C[C@@H](O)[C@@H]1NC(=O)[C@H](CCCCCN)NC(=O)[C@@H](Cc2c[nH]c3ccccc23)NC(=O)[C@H](Cc2ccccc2)NC(=O)[C@@H](NC(=O)[C@H](N)Cc2ccccc2)CSSC[C@@H](C(=O)N[C@H](CO)[C@@H](C)O)NC1=O [Compound 1] |  |  |  | 9.13 | 8.89 |
| C[C@@H](O)[C@@H]1NC(=O)[C@H](Cc2cccc(CN)c2)NC(=O)[C@@H](Cc2c[nH]c3ccccc23)NC(=O)[C@H](Cc2ccccc2)NC(=O)[C@@H](NC(=O)[C@H](N)Cc2ccccc2)CSSC[C@@H](C(=O)N[C@H](CO)[C@@H](C)O)NC1=O [Compound 5] (H-[dF]CF[dW][Phe(3-CH2NH2)]TC[Thr(ol)]; disulfide 2-7) | 8.7 | 100.0 | 0.84 |  |  |
| CC(CN)CC[C@@H]1NC(=O)[C@@H](Cc2c[nH]c3ccccc23)NC(=O)[C@H](Cc2ccccc2)NC(=O)[C@@H](NC(=O)[C@H](N)Cc2ccccc2)CSSC[C@@H](C(=O)N[C@H](CO)[C@@H](C)O)NC(=O)[C@H]([C@@H](C)O)NC1=O (some centres unmarked) [Compound 3] (H-[dF]CF[dW][X1]TC[Thr(ol)]; disulfide 2-7) |  |  |  | 9.60 | 9.54 |
| C[C@@H](O)[C@@H]1NC(=O)[C@H](C2CCCC(CN)C2)NC(=O)[C@@H](Cc2c[nH]c3ccccc23)NC(=O)[C@H](Cc2ccccc2)NC(=O)[C@@H](NC(=O)[C@H](N)Cc2ccccc2)CSSC[C@@H](C(=O)N[C@H](CO)[C@@H](C)O)NC1=O (single isomer, unassigned) [Compound 7p2] | 10.8 | 99.5 | 1.08 |  |  |
| C[C@@H](O)[C@@H]1NC(=O)[C@H](C2CCCC(CN)C2)NC(=O)[C@@H](Cc2c[nH]c3ccccc23)NC(=O)[C@H](Cc2ccccc2)NC(=O)[C@@H](NC(=O)[C@H](N)Cc2ccccc2)CSSC[C@@H](C(=O)N[C@H](CO)[C@@H](C)O)NC1=O (single isomer, unassigned) [Compound 4] | 11.7 | 99.9 | 1.07 | 10.15 | 10.04 |
